Data from article PMC11500415, “Chemical inhibition of stomatal differentiation by perturbation of the master-regulatory bHLH heterodimer via an ACT-Like domain” (Nature Communications, 2024).
Values joined by “and” are separate entries in the source; they are usually repeats but may differ in a detail not shown here. Identical values can stand only once.

Tests used:
[1] = target: T1, SCRM-MUTE (Arabidopsis thaliana, UniProt Q9M8K6); experiment: ITC of SCRM binding to MUTE in presence of compound; design: species or system A. thaliana; details: for n of SCRM_MUTE binding: without 0.96; for -T△S of SCRM_MUTE binding: without 25.3 ± 0.5; for △G of SCRM_MUTE binding: without -5.2 ± 0.2; for △H of SCRM_MUTE binding: without -30.5 ± 0.6
T1 construct: MUTE (1-202); GST (N, cleaved yes); made in house; host or cells: E. coli BL21
T1 sequence (Q9M8K6 1-202): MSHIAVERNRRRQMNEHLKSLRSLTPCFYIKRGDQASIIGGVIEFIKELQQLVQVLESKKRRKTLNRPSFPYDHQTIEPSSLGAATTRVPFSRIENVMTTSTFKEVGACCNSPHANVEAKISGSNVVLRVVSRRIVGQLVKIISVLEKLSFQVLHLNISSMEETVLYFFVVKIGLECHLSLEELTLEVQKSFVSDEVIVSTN
Source text: (§1) A. thaliana SCRM (1-494), ΔNSPCH (98-364), MUTE (1-202), ΔNFAMA (190-414), MUTEΔC (1-114), MUTER133A_R134A, MUTEE162A_E163A, MUTER133A_R134A_E162A_E163A, SCRM-ACTL (405-494), MUTE-ACTL (114-202), SPCH-ACTL (285-364), FAMA-ACTL (306-414), MUTE_ACTLR133A_R134A, MUTE_ACTLE162A_E163A, MUTE_ACTLR133A_R134A_E162A_E163A were cloned into pGEX-4T-1 vector with an N-terminal GST tag and a thrombin cleavage sequence. For protein expression, the constructs were transformed into E. coli strain BL21. For each transformant, a single colony was selected and incubated in 10 ml LB liquid media. The overnight-incubated E. coli suspensions were transferred to 1 L LB medium and incubated at 37 °C for around 2 h until the OD600 reached 0.4–0.6. The isopropyl β-D-1-thiogalactopyranoside ([…] of final concentration) was added to the cultures and the strains were incubated at 22 °C for a further 18 h. GST-fused proteins were purified using glutathione agarose resin. The soluble portion of the cell lysate was loaded onto a GST-Sepharose column. Nonspecifically bound proteins were removed by washing the column with 20 mM Tris pH 8.0, 200 mM NaCl. The bound GST-fused protein was eluted with 10 mm glutathione and 20 mM Tris pH 8.0, 200 mM NaCl. The GST-fused proteins were exchanged with phosphate-buffered saline buffer, and then the solution was treated with 50 μg of thrombin for 10–12 h at 16 ^οC. The GST portion of the protein was cleaved during thrombin digestion, and then the whole solution was reloaded onto the glutathione S-transferase column to obtain pure protein. The purified proteins were further purified by gel filtration on a Superdex-200 (GE) column using fast protein liquid chromatography and phosphate buffer (pH 7.2) as the eluent. The purity of the protein was checked by SDS-PAGE. For detailed lists of oligo DNA and plasmid information, see Supplementary Tables 5, 6, respectively.
(§2) Binding of the small molecule Stomidazolone (3) to SCRM, MUTE, SPCH, FAMA, MUTEΔC, MUTE_ACTL, SCRM_ACTL, SPCH_ACTL and FAMA_ACTL, MUTER133A_R134A, MUTEE162A_E163A, MUTER133A_R134A_E162A_E163A, as well as SCRM binding to MUTE in the presence and absence of Stomidazolone (3) / AYSJ1059 (5) /AYSJ1061 (6) was characterized at 30 °C using a Malvern PEAQ-ITC microcalorimeter. All the protein samples were dialyzed overnight using PBS buffer containing 2% DMSO and 1 mM DTT. Stomidazolone was dissolved in PBS buffer containing 2% DMSO and 1 mM DTT. Titrations were performed by injecting 1 × 0.5-μL and 12 × 3-μL or 1 × 0.75-μL and 18 × 2-μL or 1 × 0.2-μL and 25 × 1.3-μL aliquots of 1 mM Stomidazolone / AYSJ1059 / AYSJ1061 to 5-30 μM of protein in PBS buffer pH 7.4, containing 2% DMSO and 1 mM DTT. All titrations were carried out at least twice. The raw data were corrected using buffer and protein controls and analyzed using the software supplied by the manufacturer. See Supplementary Table 3 for details.

[2] = target: T1, SCRM-MUTE; experiment: BLI of SCRM-MUTE interaction in presence of compound; type: binding, A. thaliana; details: for effect on the SCRM-MUTE heterodimerization (in words): BLI and ITC (Supplementary Fig. 9, Supplementary Tables 2, 3); for Response: BLI, GST-SCRM loaded, in nm (unit assumed)
Source text: as §1
The binding affinities of SCRM to MUTE / MUTER133A_R134A / MUTEE162A_E163A / MUTER133A_R134A_E162A_E163A in presence and absence of Stomidazolone (3) and its analogues (AYSJ1059 (5) and AYSJ1061 (6)), and Stomidazolone / AYSJ1059 / AYSJ1061 interactions with GST-tagged SCRM, MUTE, SPCH, FAMA, MUTE ΔACTL, MUTE_ACTL, SCRM_ACTL, SPCH_ACTL and FAMA_ACTL, MUTER133A_134A, MUTEE162A_E163A, MUTER133A_R134A_E162A_E163A were measured using the Octet Red96 system (ForteBio, Pall Life Sciences) following the manufacturer’s protocols. The optical probes coated with anti-GST were first loaded with 500 nM GST tagged proteins before kinetic binding analyses. The experiment was performed in 96-well plates maintained at 30 °C. Each well was loaded with 200 μL reaction volume for the experiment. The binding buffer used in these experiments contained 1× PBS supplemented with 2% DMSO, 0.02% Tween20. The concentrations of the Stomidazolone as the analyte in the binding buffer were 100, 50, 25, 12.5, 6.25, 3.12, and 1.56 μM. There was no binding of the analytes to the unloaded probes as shown by the control wells. Binding kinetics to all seven concentrations of the analytes were measured simultaneously using default parameters on the instrument. The data were analyzed using the Octet data analysis software. The association and dissociation curves were fit with the 1:1 homogeneous ligand model. The kobs (observed rate constant) values were used to calculate Kd, with steady-state analysis of the direct binding. See Supplementary Table 3 for details.

[3] = target: T2, MUTE_ACTL (Arabidopsis thaliana, UniProt Q9M8K6); experiment: ITC direct binding; design: species or system A. thaliana; details: for binding to MUTE analyzed by ITC (in words): ITC (Supplementary Fig. 8, Supplementary Table 2)
T2 construct: MUTE-ACTL (114-202); made in house; host or cells: E. coli BL21
Source text: as §1, §2

Compound	n of SCRM_MUTE binding [1]	-T△S of SCRM_MUTE binding [1]	△G of SCRM_MUTE binding [1]	△H of SCRM_MUTE binding [1]	effect on the SCRM-MUTE heterodimerization (in words) [2]	binding to MUTE analyzed by ITC (in words) [3]	Response ([2]; MUTE+Stomid Conc. 78 nM)	Response ([2]; MUTE+Stomid Conc. 78 nM, listed as Stomid)	Response ([2]; MUTE+Stomid Conc. 156 nM)	Response ([2]; MUTE+Stomid Conc. 312.5 nM)	Response ([2]; MUTE+Stomid Conc. 625 nM)	Response ([2]; MUTE+Stomid Conc. 1250 nM)	Response ([2]; MUTE+Stomid Conc. 2500 nM)	Response ([2]; MUTE+Stomid Conc. 5000 nM)	driving force of binding to the ACTL domain (in words) ([3]; ITC data)	-T△S ([3]; ITC, MUTE_ACTL)	△G ([3]; ITC, MUTE_ACTL)	△H ([3]; ITC, MUTE_ACTL)	Kd ([3]; ITC, MUTE_ACTL, ND = no binding)
Cc1ccc(C2(NS(=O)(=O)c3ccccc3)N=C(c3ccccc3)C(=O)N2S(=O)(=O)c2ccccc2)cc1 (centres unmarked) [AYSJ1059]	1.0	27.2 ± 0.6	-6.3 ± 0.2	-33.5 ± 0.6	minimal effects	no binding													
O=C1C(c2ccccc2)=NC(NS(=O)(=O)c2ccccc2)(c2ccc(Br)cc2)N1S(=O)(=O)c1ccccc1 (centres unmarked) [AYSJ1061]	1.1	35.3 ± 0.6	-10.2 ± 0.2	-45.5 ± 0.6	minimal effects	no binding													
O=C1C(c2ccccc2)=NC(NS(=O)(=O)c2ccccc2)(c2ccccc2)N1S(=O)(=O)c1ccccc1 (centres unmarked) [Stomidazolone]	0.91	5.2 ± 0.4	-2.3 ± 0.2	-7.5 ± 0.3			0.031	0.0213	0.0603 and 0.0323	0.0687 and 0.078	0.1313 and 0.1154	0.2145 and 0.1812	0.2742 and 0.2312	0.2812 and 0.3134	primarily driven by enthalpic interactions	14.4 ± 0.3	-8.1 ± 0.2	-22.5 ± 0.5	9.8 ± 1.3 µM
